Laboratory results from patent publication US6900351B2, “Aminopolycarboxylates, process for producing the same and use thereof” (Tosoh Corporation, priority 2000, dated 2005).

Assay: Chelatability (constant of calcium ion stability) test with calcium ion electrode
Assay type: physicochemical
Details: 25° C., pH 10, 1 mmol/l chelating agent with equivalent 1 mmol/l calcium chloride
Method: To 1 mmol/l aqueous solution of this sodium aminopolycarboxylate, an equivalent amount of a 1 mmol/l aqueous solution of calcium chloride was added. Then the constant of calcium ion stability (pKCa^2+) was determined by measuring the calcium ion concentration at pH 10.0 by using a calcium ion electrode.
(1) Formation of Calibration Curve
By using calcium chloride, solutions having calcium concentrations of 0.1 mmol/l, 1.0 mmol/l and 10 mmol/l were prepared and the potential of each solution was measured. Based on the data thus obtained, a calibration curve of the logarithmic calcium ion concentration vs. potential was formed.
(2) Measurement of Constant of Stability
An aqueous solution (100 ml) was prepared by adding a chelating agent (1 mmol/l) and calcium chloride (1 mmol/l) at an equivalent ratio to an aqueous solution containing 0.1 mmol/l of ammonium chloride to achieve a constant ionic strength. After stirring this solution for 10 minutes, the potential of the solution at 25° C. at pH 10 was measured. Based on the calibration curve formed in (1), the calcium ion concentration corresponding to the potential thus measured was determined and the constant of stability was calculated on the assumption that the sample and calcium ion formed a complex at a ratio of 1:1.

With `O=C([O-])CC(NCCNC(CC(=O)[O-])C(=O)O)C(=O)[O-].[Na+].[Na+].[Na+]` (stereo not shown) [trisodium N,N′-ethylenediaminedisuccinate, reference compound] the “constant of calcium ion stability (pKCa2+)” value was 3.8.
